Values quoted from earlier work, collected in patent US20080306035A1, “Methods and Compositions for Treating Female Infertility Using Clomiphene” (priority 2005, published 2008).
Counter-ions that a name gives are not always drawn.

How the values were obtained:
[1] = in vivo

| Compound | patients treated who achieve pregnancy (patients treated with clomiphene citrate, London et al. 1999) | ovulation, share of patients (up to 100 mg clomiphene citrate for 5 days per cycle) | effect on uterine blood flow [1] |
| --- | --- | --- | --- |
| CCN(CC)CCOc1ccc(C(=C(Cl)c2ccccc2)c2ccccc2)cc1 [clomiphene citrate] | 25-40% | about 70% | – |
| cis-clomiphene | – | – | raise uterine blood flow |
| trans-clomiphene | – | – | raise uterine blood flow |
